Measured values: patent US20170176470A1, “DETECTION OF CARBOXYALKYLPYRROLE OR PENTYLPYRROLE ETHANOLAMINE PHOSPHOLIPIDS” (CASE WESTERN RESERVE UNIVERSITY, priority 2015, published 2017)

Legend:
[1] = biological target: T1, recombinant mouse TLR2-Fc fusion protein (Mus musculus, UniProt Q9QUN7); assay: Competitive binding of CEP-PE vs CEP-HSA to recombinant mouse TLR2-Fc protein (ELISA); details: vesicles 0 to 125 μM; coated CEP-HSA; mTLR2-Fc 1 μg/ml
T1 construct: purchased R&D systems (Minneapolis, Minn.)
Protocol: Small unilamellar vesicles of CEP-DPPE (125 μM) in phosphate buffered saline (PBS) were prepared by extruding (20 times) the hydrated phospholipids through a 0.1 μm polycarbonate filter using an Avanti Mini-Extruder (Avanti Polar Lipids, Inc., Alabaster, Ala.). The resulting solution was diluted to various concentrations by addition of PBS. To a 96-well ELISA plate, 100 μl of 5 μM CEP in CEP-HSA protein in PBS solution was added into each well and the plate was incubated at 37° C. for 1 h. PBS (100 μl) was used as control. Then the wells were washed with PBS and the non-binding sites on wells were blocked with 350 μL of 4% bovine serum albumin (BSA) in PBS buffer for 1 h at 37° C. blocking was completed, a mixture of recombine-ant mouse TLR2-Fc protein at a fixed concentration (1 μg/ml, in 1% BSA-PBS) with an equal volume of CEP-PE vesicles at concentrations from 0 to 125 μM was added to each well, and the plate was allowed to incubate for 1 h at 37° C. DPPE vesicle solutions at 0, 50, 75 and 120 μM concentration, prepared by sonication, were used as parallel samples. After washing the plate with PBS containing 0.1% Tween-20 (PBST) buffer, 100 μL of 1:2,000 diluted goat anti-human Fc antibody in PBST buffer was added to each well. […] After an additional 30 min incubation, the absorbance for each well was read at 405 nm with a microplate reader (Bio-Rad, Hercules, Calif.).

[2] = test system: PLD from Streptomyces chromofuscus; assay: PLD-catalyzed hydrolysis of pyrrole-modified PEs, monitored by LC-MS; assay type: biochemical
Protocol: The isolated lipids were hydrolyzed with PLD (Streptomyces chromofuscus) by a modification of the method described previously for hydrolysis of isolevuglandin modified PEs. Lipids were re-suspended in 50 μL of methanol. Then 450 μL of HBSS buffer (Thermo Scientific, Waltham, Mass.) supplemented with 5 mM CaCl2 and 0.1 mM EDTA was added. The mixture was incubated at 37° C. for 30 min, and then was sonicated for 10 min. The cloudy lipid mixture was passed through a 0.1 μm polycarbonate filter (20 times) for extrusion using an Avanti Mini- Extruder Set (Avanti Polar Lipids, Inc., Alabaster, Ala.) to generate a homogeneous unilammelar lipid vesicle solution. Then 280 units of PLD (Streptomyces chromofuscus) were added to each sample. The mixture was incubated under argon with gentle shaking at 37° C. overnight. The next day the samples were evaporated to dryness under a stream of nitrogen for 2 h. […]
To verify CEP-PEs are substrates of PLD, CEP-DPPE and d4-CEP-PE standards were treated with PLD from Streptomyces chromofuscus. Then the generation of CEP-ETN and d4-CEPETN was monitored by LC-MS/MS, respectively. […]
Total phospholipids isolated from biological samples by a modified Bligh & Dyer method, were prepared for phospholipolysis by conversion into small unilamellar vesicles (SUVs) by extrusion. […] The resulting product mixture was then analyzed by injection into the LC-MS/MS. […]

HUVECs = assay: HUVEC tube formation assay; assay type: cell-based, human
Protocol: For comparing the ability of various CEP-derivatives to promote tube formation (FIG. 2A) HUVECs were seeded on Matrigel-coated 48 well plates (BD Bioscience). The DMEM-F12 medium (Media lab, Cleveland Clinic, Cleveland, Ohio) was supplemented with various CEP-derivatives as indicated and incubated with cultured HUVECs at 37° C. for 8 h. Tube formation by HUVECs was observed using a phase contrast inverted microscope. Two independent assays were performed by two operators, one used PBS as control and the other used DPPE vesicles as control. The data were quantified either by measuring the length of tubes or by the number of branches. For testing the effects of oxPAPC, a TLR2 inhibitor, (FIG. 2C) or TLR2 knockdown (FIG. 2D) on the ability of CEP-PE to promote tube formation, growth factor-reduced (GFR) basement membrane extract (Cultrex BME, Trevigen, Gaithersburg, Md.; 175 μl/well) was added to the wells of an ice-cold 48-well plate and then incubated at 37° C. for 1 h to allow the gel to solidify. Overnight-starved, trypsin detached and extensively washed HUVECs (2.5×10^4 cells/well; Promocell, GmbH, Heidelberg, Germany) in a basal Growth Medium 2 (GM2; Promocell, GmbH) were seeded onto the BME coated wells. […] They were further thoroughly washed three times with GM2 basal medium, counted and seeded onto BME coated wells. […]

T1 sequence (Q9QUN7 with tags, fused parts or gaps limits assumed): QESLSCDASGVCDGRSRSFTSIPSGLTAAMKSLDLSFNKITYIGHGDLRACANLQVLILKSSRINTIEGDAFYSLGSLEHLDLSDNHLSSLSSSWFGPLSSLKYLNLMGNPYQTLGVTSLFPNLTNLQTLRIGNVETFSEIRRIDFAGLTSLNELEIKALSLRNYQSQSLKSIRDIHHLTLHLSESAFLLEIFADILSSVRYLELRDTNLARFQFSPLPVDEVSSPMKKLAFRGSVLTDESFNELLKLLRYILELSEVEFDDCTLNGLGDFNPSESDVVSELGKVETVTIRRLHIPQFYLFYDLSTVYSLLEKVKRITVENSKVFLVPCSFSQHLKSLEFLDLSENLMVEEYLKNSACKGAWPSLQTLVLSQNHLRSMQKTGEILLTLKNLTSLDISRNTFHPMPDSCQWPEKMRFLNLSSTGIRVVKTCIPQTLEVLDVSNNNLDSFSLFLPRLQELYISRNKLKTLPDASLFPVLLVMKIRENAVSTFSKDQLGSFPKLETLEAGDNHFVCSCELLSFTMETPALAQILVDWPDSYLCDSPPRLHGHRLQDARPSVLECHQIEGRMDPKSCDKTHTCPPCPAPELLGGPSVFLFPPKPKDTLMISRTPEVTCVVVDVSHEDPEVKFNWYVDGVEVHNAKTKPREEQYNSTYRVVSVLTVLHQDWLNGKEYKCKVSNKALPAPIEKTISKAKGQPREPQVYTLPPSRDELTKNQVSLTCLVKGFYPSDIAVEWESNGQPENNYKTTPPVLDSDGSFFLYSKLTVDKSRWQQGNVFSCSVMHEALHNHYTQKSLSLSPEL

Row | Compound | competition with CEP-HSA in binding with mTLR2-Fc protein [1] | release of CEP-ETN by PLD ([2]; control experiment, incubation for 1 h (data not shown)) | hydrolysis by PLD (Streptomyces chromofuscus) to the modified ethanolamine ([2]; standards treated with PLD, LC-MS/MS or LC-MS) | ability to induce tube formation by HUVECs after knockdown of TLR2 by TLR2 siRNA (HUVECs; HUVECs with transient TLR2 knockdown, 1-500 nM CEP-DPPE, 12 h) | tube formation by HUVECs (HUVECs; cultured HUVECs on Matrigel, 8 h, 0.5 μM CEP-DPPE, PBS or DPPE as negative control)
1 | CCCCCCCCCCCCCCCC(=O)OC[C@H](COP(=O)(O)OCCN)OC(=O)CCCCCCCCCCCCCCC [DPPE, 1,2-Dipalmitoyl-sn-glycero-3-phosphoethanolamine, reference compound] | does not inhibit |  |  |  | 
2 | CEP derivative of 1,2-dipalmitoyl-sn-glycero-3-phosphoethanolamine [CEP-DPPE] | compete with CEP-HSA | quantitative release | readily hydrolyzed | abolished | induces tube formation
